Data: patent US9512139B2, “Conformationally constrained, fully synthetic macrocyclic compounds” (POLYPHOR AG, priority 2009, dated 2016)
Where two headings read alike, the source gives them in different places.

Assays:
[1] = Metabolic stability assay, human microsomes; type: in vitro ADME; details: both, human, microsomes, 10 µM; for Metabolic Stability 60 min hum [% remain.]: 1 h
in vitro [2] = type: in vitro ADME, human; details: human, plasma, 10 µM; for Plasma Stability 240 min hum [% remain.]: 4 h
[3] = Metabolic stability assay, rat microsomes (values in parentheses); type: in vitro ADME; details: value in parentheses
[4] = Pharmacokinetic study after single i.v. and p.o. administration in male SD rats; type: in vivo; details: rat; for half-life: read-out: T1/2 (terminal) (converted)
Method: 5. Pharmacokinetic Study (PK) Analysis
Pharmacokinetic analyses after single intravenous (i.v.) and two different peroral (p.o.) administrations were performed for the test compounds. 240 grams (±10 gram) male SD rats were catheterized and used in the study. The vehicle, Solutol HS-15/0.9% saline (5:95), was added to give a final concentration of 0.33 mg/ml of the compounds for i.v. application, and 0.5 or 2.0 mg/ml for p.o. applications. The volumes used for applications were 3 ml/kg i.v. and 10 ml/kg p.o. resulting in a final dose of 1 mg/kg for the intravenous dose and 5 or 20 mg/kg for the peroral doses.
Blood samples were withdrawn via the catheter at 1) predose, 5, 15, 30, 60, 120, 240, and 480 minutes for the i.v. application and 2) predose, 15, 30, 60, 120, 240, 480 and 720 minutes for the p.o. applications. Plasma was prepared by centrifugation of heparinized whole blood. Plasma samples (˜120 μl each time point, Li-Heparin, 20 IE/ml) were stored at −80° C. until HPLC-MSMS analysis.
Preparation of the Plasma Calibration Samples:
“Blank” rat plasma from untreated animals was used. Aliquots of plasma of 50 μL each were spiked with Internal Standard (ISTD) and with known amounts test compounds in order to obtain 11 plasma calibration samples in the range 0.25-4000 ng/mL.
Preparation of Plasma Samples:
To 50 μL of sample from treated animals 20 μL of internal standard were added. After mixing with 200 μL of acetonitrile, 2% HCOOH were added and each sample was vortexed for several seconds. Precipitated material was removed by centrifugation for 10 min (13200 rpm), the supernatant removed and dried under a constant flow of N2 (Porvair, MiniVap). To reconstitute the dried samples, 200 μL of [DMSO/acetonitrile/H2O, 4/4/2 (v/v/v)+2% HCOOH] were added and the sample was shaken for at least 5 minutes.
LC-MSMS Analysis of Samples:
Reconstituted samples were analysed by HPLC/MSMS on a reverse phase analytical column (BEH C18, 100×2.1 mm, 1.7 μm, Waters). Mobile phase A: H2O/acetonitrile (95:5, v:v) 0.1% formic acid, mobile phase B: Acetonitrile/H2O (95:5, v:v) 0.1% formic acid. Compounds were eluted from the column by using a gradient from 1% B to 60% B in 2.5 min.).
Pharmacokinetic Evaluation:
PK analysis was performed on mean values (generally n=3) using WinNonLin software (Version 5.3, Pharsight Corporation). The area under the curve AUC was calculated by the linear trapezoidal rule (linear interpolation, uniform weighting). AUC(t-∞) was estimated as Ct/b (b: elimination rate constant). […] the sum of AUC(0-t) and AUC(t-∞). Elimination half-life was calculated by the linear regression on at least three data points during the elimination phase. The time intervals selected for the half-life determinations were evaluated by the correlation coefficient (r^2), which should be at least above 0.85 and ideally above 0.96.
In case of i.v. administration the initial concentration at tzero was determined by extrapolation of the curve through the first two time points. Finally bioavailability after p.o. administration was calculated from the dose normalized AUC(0-∞) ration after p.o. versus i.v. administration.

[5] = Metabolic stability assay, CD-1 mouse microsomes; type: in vitro ADME; details: both, CD-1, mouse, microsomes, 10 µM; for Metabolic Stability 60 min mouse [% remain.]: 1 h
in vitro [6] = type: in vitro ADME, mouse; details: both, CD-1, mouse, plasma, 10 µM; for Plasma Stability 240 min mouse [% remain.]: 4 h
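For Plasma Stability 240 min mouse [% remain.] in this document: sodium citrate stabilized mouse plasma, parent compound quantified by HPLC/MS/MS relative to its peak area at time zero, run in triplicate.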
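For Plasma Stability T½ [min] mouse in this document: sodium citrate stabilized mouse plasma, parent compound quantified by HPLC/MS/MS relative to its peak area at time zero, run in triplicate.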

Row | Structure (SMILES) | Metabolic Stability T½ [min] hum [1] [min] | Metabolic Stability 60 min hum [% remain.] [1] [% remain.] | Plasma Stability T½ [min] hum (in vitro [2]) [min] | Plasma Stability 240 min hum [% remain.] (in vitro [2]) | Metabolic Stability 60 min (rat) [% remain.] [3] [% remain.] | Metabolic Stability T½ [min] (rat) [3] | Metabolic Stability T½ [min] mouse [5] [min] | Metabolic Stability 60 min mouse [% remain.] [5] [% remain.] | Plasma Stability T½ [min] mouse (in vitro [6]) [min] | Plasma Stability 240 min mouse [% remain.] (in vitro [6]) | further results
1 | CN1CCC[C@H](NC(=O)CC(C)(C)C)C(=O)N2C[C@@H](O)C[C@H]2COc2cccc(c2)C1=O [Ex. 571, N-[(4S,6S,10S)-6-hydroxy-14-methyl-9,15-dioxo-2-oxa-8,14-diazatricyclo[14.3.1.0^4,8]icosa-1(20),16,18-trien-10-yl]-3,3-dimethylbutanamide] | > 60 | 90 | > 240 | 86 | 88 | 60 (60) min | > 60 | 74 | > 240 | 89 | Cmax ([4]; male, SD, plasma, iv, 1 mg/kg): 644 ng/mL; Tmax ([4]; male, SD, plasma, iv, 1 mg/kg): 0.08 h; C0 ([4]; male, SD, plasma, iv, 1 mg/kg, extrapolated to tzero): 932 ng/mL; half-life ([4]; male, SD, plasma, iv, 1 mg/kg): 1.7 h; Cmax ([4]; male, SD, plasma, po, 5 mg/kg): 340 ng/mL; Tmax ([4]; male, SD, plasma, po, 5 mg/kg): 0.25 h; bioavailability ([4]; male, SD, plasma, po, 5 mg/kg): 29%; half-life ([4]; male, SD, plasma, po, 5 mg/kg): 2.18 h; Cmax ([4]; male, SD, plasma, po, 20 mg/kg): 1520 ng/mL; Tmax ([4]; male, SD, plasma, po, 20 mg/kg): 0.25 h; bioavailability ([4]; male, SD, plasma, po, 20 mg/kg): 27.2%; half-life ([4]; male, SD, plasma, po, 20 mg/kg): 2.3 h; AUC(t-∞) dose normalized ([4]; iv, 1 mg/kg): 321.32 kg·ng·h/mL/mg; Cmax dose normalized ([4]; iv, 1 mg/kg): 643.67 kg·ng/mL/mg; V (terminal) ([4]; iv, 1 mg/kg): 7.61859 L/kg; AUC(t-∞) dose normalized ([4]; po, 5 mg/kg): 93.34 kg·ng·h/mL/mg; Cmax dose normalized ([4]; po, 5 mg/kg): 68.07 kg·ng/mL/mg; AUC(t-∞) dose normalized ([4]; po, 20 mg/kg): 87.49 kg·ng·h/mL/mg; Cmax dose normalized ([4]; po, 20 mg/kg): 75.83 kg·ng/mL/mg
2 | CN1CCC[C@H](NC(=O)Cc2ccccc2)C(=O)N2C[C@@H](O)C[C@H]2COc2cccc(c2)C1=O [Ex. 574, N-[(4S,6S,10S)-6-hydroxy-14-methyl-9,15-dioxo-2-oxa-8,14-diazatricyclo[14.3.1.0^4,8]icosa-1(20),16,18-trien-10-yl]-2-phenylacetamide] | > 60 | 94 | > 240 | 91 | 92 | 60 (60) min | > 60 | 93 | > 240 | 95 | –
